Calls of active or inactive are those of the source.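 Rule for the calls: active = EC50 no more than a set limit of log units above the highest dose; inactive = the rest.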
biological target: S. pyogenes SKKanGAS, kanamycin survival, BacTiterGlo, 6 h; assay: S. pyogenes SKKanGAS kanamycin growth inhibitors – SKKanGAS strain, luminescence, dose confirmation, streptokinase promoter inhibitor project, dose response (AID 1902);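 note: lower survival reflects blocked streptokinase promoter driving kanamycin resistance gene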

Row | Compound | EC50
1 | Cc1ccc(C(=O)NNC(=S)NC(=O)c2ccccc2)cc1 | 0.955 µM
2 | COc1ccc(NC(=O)c2cc3cccc(OC)c3oc2=Nc2ccc(C(=O)O)cc2)cc1OC | 2.1 µM
3 | Cc1cc(C(=O)N/N=C/c2ccc([N+](=O)[O-])s2)n[nH]1 | 2.39 µM
4 | Cc1cc(C(F)(F)F)c(C#N)c(SCC(=O)Nc2nc3cc(Br)ccc3s2)n1 | 5.7 µM
5 | CCn1cc(C(=O)OCC(=O)c2cc(C)n(-c3cccc(C(F)(F)F)c3)c2C)c(=O)c2ccc(C)nc21 | 9.92 µM
6 | Cc1ccc(-c2nc3c(Cl)cc(Cl)cc3c(=O)n2O)cc1 | 0.808 µM
7 | Cc1ccc(NC(=S)NC(=O)c2ccc(-c3ccc(Cl)cc3)o2)c(O)c1 | 0.531 µM
8 | COc1ccc(-c2cc(C3CCN(Cc4cccc(C(F)(F)F)c4)CC3)[nH]n2)cc1 | 9.26 µM
9 | Cc1sc2ncnc(N3CCC(C(=O)NCC(=O)Nc4ccc(F)c(F)c4)CC3)c2c1C | 5.07 µM
10 | Oc1cccc2ccc(/C=C/c3ccc(Br)s3)nc12 | 1.38 µM
11 | Brc1cc2c(cc1C1Nc3ccccc3C3C=CCC31)OCO2 (stereo unspecified) | 5.37 µM
12 | CSc1nc2nccc(-c3ccc(-c4ccccc4)cc3)n2n1 | 3.08 µM
13 | CC1(C)OC(C(O)(c2ccccc2)c2ccccc2)[C@@H](C(O)(c2ccccc2)c2ccccc2)O1 (stereo partly specified) | 3.36 µM
14 | CC(=O)Oc1ccc(/C=N/NS(=O)(=O)c2ccccc2)cc1 | > 15 µM (inactive)
15 | CC(=O)O[C@H]1CC[C@]2(C)[C@H]3CC=C4[C@@H]5[C@@H](C)[C@H](C)CC[C@]5(C(=O)O)CC[C@@]4(C)[C@]3(C)CC[C@H]2C1(C)C | 2.83 µM
16 | COc1ccc(Cc2[nH]n3c(=O)cc(C(C)C)nc3c2-c2ccccc2)cc1 | 2.33 µM
17 | CCOc1cc(/C=C2\C(=O)N(c3nc(-c4ccc(Br)cc4)cs3)N=C2c2ccccc2)ccc1O | 1.77 µM
18 | O=C(N/N=C/c1c(O)n(Cc2ccco2)c(=O)[nH]c1=O)c1ccccc1O | 2.81 µM
19 | Oc1ccc(Cl)cc1C1=NNC(c2ccc(Cl)cc2)C1 (stereo unspecified) | 1.1 µM
20 | CC(C)c1nc(NCc2ccccc2)c(C#N)c2c1CCCC2 | 3.55 µM
21 | COCCCNC(=S)NNC(=S)Nc1cccc(Cl)c1 | > 15 µM (inactive)
22 | O=C(CSc1nnc(NC(=O)c2cccc(F)c2)s1)NCC1CCCO1 (stereo unspecified) | > 15 µM (inactive)

Row | Compound | EC50
23 | Cc1cc(/C=C2/C(=N)N3C(=NC2=O)SN=C3S(C)(=O)=O)c(C)n1-c1ccc(F)cc1 | 4.98 µM
24 | Cc1cc(C)c(CSc2ncc(-c3ccc([N+](=O)[O-])cc3)[nH]2)c(C)c1 | 4.19 µM
25 | Oc1c(Cl)cc(Cl)cc1C=Nc1cc(C(F)(F)F)ccc1N1CCc2ccccc2C1 | 3 µM
26 | COc1ccc(C2CC(c3cccs3)=NN2C(=O)c2ccc(Br)o2)cc1 (stereo unspecified) | 5.63 µM
27 | CCN(CC)c1ccc(-n2cc3c(=O)n(C)c(=O)n(C)c3c2)cc1 | 3.43 µM
28 | Cc1ccc(C(=O)NC(=S)N(C)C2CCCCC2)cc1Br | 2.96 µM
29 | O=C(NC12CC3CC(CC(C3)C1)C2)c1ccc([N+](=O)[O-])o1 | 2 µM
30 | C/C(=N\Nc1ccc(C(=O)O)cc1)c1ccc2c(c1)Nc1ccccc1S2 | 2.45 µM
31 | Cc1cc(C)c(C(=O)Nc2ccc(Br)c(C(F)(F)F)c2)c(C)c1 | 2.79 µM
32 | C/C(=N\NC(=O)COc1ccccc1-c1ccccc1)c1ccc(O)cc1O | 3.89 µM
33 | CC[C@H]1OC(=O)[C@H](C)[C@@H](O[C@H]2C[C@@](C)(OC)[C@@H](O)[C@H](C)O2)[C@H](C)[C@@H](O[C@@H]2O[C@H](C)C[C@H](N(C)C)[C@H]2O)[C@](C)(OC)C[C@@H](C)C(=O)[C@H](C)[C@@H](O)[C@]1(C)O | < 0.06 µM
34 | O=S(=O)(Nc1c(S(=O)(=O)c2ccccc2)c2nc3ccccc3nc2n1C1CCCCC1)c1ccccc1 | 2.71 µM
35 | O=c1cc(-c2ccccc2Cl)oc2c(NS(=O)(=O)c3cc(Cl)cc(Cl)c3O)ccc(O)c12 | 0.552 µM
36 | Oc1ccc(-c2c(C3=CCCCC3)sc3ccccc23)cc1 | 4.97 µM
37 | CCCOc1ccc(-c2nc(OC)c3ccccc3n2)cc1 | > 15 µM (inactive)
38 | Cc1ccc(-n2c(-c3ccc(Br)cc3)c[n+]3c2CCc2ccc4cccnc4c2-3)cc1 | 3.6 µM
39 | Brc1cc(-c2ccccc2)nc(-c2ccccc2)n1 | 12.1 µM
40 | COc1ccc(NC(C)C(=O)N/N=C/c2c(O)ccc3ccccc23)cc1 (stereo unspecified) | 1.14 µM
41 | Cn1c2ccccc2c(=O)c2c(=O)n(C3CCCCC3)c(-c3cccs3)nc21 | 7.03 µM
42 | Cc1ccc(O)c(NC(=S)NC(=O)c2ccc(-c3ccc(Cl)cc3)o2)c1 | 0.221 µM
43 | Cc1cc(C)c2nc(NNC(=O)c3cc(=O)c4ccccc4o3)sc2c1 | 0.165 µM
44 | Cc1oc(C(C)(C)C)cc1C(=O)N1CCN(C(c2ccccc2)c2ccccc2)CC1 | 2.89 µM

Row | Compound | EC50
45 | COc1cc(/C(C)=C/c2ccccc2)c2c(c1)oc1ccccc12 | 4.04 µM
46 | NC(=S)N/N=C/c1ccc(C23CC4CC(CC(C4)C2)C3)cc1 | 3.91 µM
47 | CCC[N+]1(CC#CC2(O)CCCCC2)CCOCC1 | > 15 µM (inactive)
48 | Cc1nn(-c2ccccc2)c(C)c1/C=N/NC(=O)c1cc(-c2cccc3ccccc23)n[nH]1 | 6.54 µM
49 | COc1ccc(-c2c(C#N)c(N)nc3sc(C(=O)c4ccccc4)c(N)c23)cc1 | 5.9 µM
50 | COc1cc2nc(CSc3nc(-c4ccc(F)cc4)cs3)[nH]c(=O)c2cc1OC | > 15 µM (inactive)
51 | COc1cc(C)ccc1NC(=O)Cc1csc(NC(=O)Nc2ccccc2OC)n1 | 15.7 µM
52 | O=C(/C=C/c1cccc(Cl)c1)c1ccc([N+](=O)[O-])o1 | 2.23 µM
53 | Cc1nnc(SCC2=C(C(=O)O)N3C(=O)C(NC(=O)C(C)n4nc(C(F)(F)F)cc4C)C3SC2)s1 (stereo unspecified) | 0.14 µM
54 | CCOc1cccc(/C=N/NC(=S)Nc2ccccc2[N+](=O)[O-])c1O | 0.095 µM
55 | COc1ccc(-c2csc(NC(=S)NC(=O)c3cccs3)n2)cc1OC | 13.9 µM
56 | O=C(CCc1ccccc1)NNC(=S)NC(=O)c1ccccc1 | 1.81 µM
57 | COc1cc2c(C(=O)N3CCN(c4ccccc4C)CC3)c(C)oc2cc1Br | 10.3 µM
58 | CN(C)c1ccc(C2C=C(c3ccc(Cl)cc3OC(F)F)Nc3ncnn32)cc1 (stereo unspecified) | 10.8 µM
59 | Cc1ccccc1C(=O)Oc1cccc(Nc2ncnc3ccccc23)c1 | 3.57 µM
60 | Nc1ccc(N=Nc2ccccc2)c2ccccc12 | 6.71 µM
61 | Cc1nn(-c2nc3ccccc3[nH]2)c(N)c1-c1ccc(Cl)cc1 | 1.53 µM
62 | CCOC(=O)c1c(S(=O)(=O)N2CCCCCC2)c(C)n(C)c1C | > 15 µM (inactive)
63 | COc1ccc(C2CC(c3cccs3)=NN2C(=O)CSc2nc3c(cnn3-c3ccccc3)c(=O)[nH]2)cc1 (stereo unspecified) | 2.11 µM
64 | N#Cc1ccccc1CN1C(=O)S/C(=C/c2cccn2-c2ccc(C(=O)O)cc2)C1=O | 7.03 µM
65 | Cc1cccc(Nc2nc(-c3ccc(F)c(C)c3)cs2)n1 | 8.5 µM
66 | O=C(Nc1nnc(-c2ccco2)o1)c1ccc(Cl)s1 | 1.71 µM

Row | Compound | EC50
67 | O=C(CN1c2ccccc2Sc2ccccc21)NNC(=O)Nc1cccc(Cl)c1 | 4.97 µM
68 | COc1ccc2c(c1)[nH]c1c(=O)n(CCc3cnc[nH]3)cnc12 | > 15 µM (inactive)
69 | O=C(Nc1nnc(C2=COCCO2)o1)c1cccc(C(F)(F)F)c1 | 1.73 µM
70 | CC1CCCN(S(=O)(=O)c2ccc(C(=O)Nc3nnc(C4CC4)o3)cc2)C1 (stereo unspecified) | 3.3 µM
71 | COc1ccc(NC(=S)Nc2nc(CC(=O)Nc3ccccc3OC)cs2)cc1 | 8.89 µM
72 | NC1CCN(c2c(F)cc3c(=O)c(C(=O)O)cn(C4CC4)c3c2Cl)C1 (stereo unspecified) | 0.064 µM
73 | COc1cccc(-c2cc(C(F)(F)F)nc(N3CCCCC3)n2)c1 | 4.86 µM
74 | Cc1cc(SCC(=O)N/N=C/c2ccc(O)cc2O)c(C)cc1Br | 1.93 µM
75 | COc1ccc(Br)cc1/C=C/C(=O)NC(=S)Nc1ccc(Cl)c(C(=O)O)c1 | 10.5 µM
76 | COc1cccc(-c2nc(NC3CCCC3)c3ccccc3n2)c1O | 5.84 µM
77 | CC1CCc2c(sc3nc(C(C)(C)C)nc(N4CCN(C(=O)CCl)CC4)c23)C1 (stereo unspecified) | 3.6 µM
78 | N#C/C(=C(/O)COc1ccccc1)c1nc2ccccc2s1 | 14.5 µM
79 | O=c1c2c(nc3c(-c4ccc(Cl)cc4)c[nH]n13)CCC2 | 3.38 µM
80 | COCc1cc(=O)[nH]c(Nc2nc3ccc(C)cc3o2)n1 | 2.27 µM
81 | COc1cccc(Nc2c3c(nc4c(-c5ccccc5)c(C)nn24)CCC3)c1 | 1.8 µM
82 | Cc1nn(CC(O)CN2c3ccccc3Sc3ccccc32)c(C)c1Br (stereo unspecified) | 2.15 µM
83 | c1ccc2c(-c3c[nH]c4ccccc34)c3ccccc3nc2c1 | 10.9 µM
84 | O=C(NC(=S)NNC(=O)[C@H]1C[C@@H]1c1ccccc1)c1cccc(F)c1 | 0.756 µM
85 | O=C(Nc1nc(-c2ccccn2)cs1)C12CC3CC(CC(O)(C3)C1)C2 | 1.44 µM
86 | Cc1[nH]n2c(=O)cc(C(C)(C)C)nc2c1-c1ccccc1 | 2.77 µM
87 | Cc1nnc(SC(C(=O)Nc2cc(Cl)cc(Cl)c2)c2ccccc2)[nH]c1=O (stereo unspecified) | 10.6 µM
88 | COc1ccccc1C(=O)NNC(=O)C(=O)Nc1cccc(Cl)c1C | 3.44 µM

Row | Compound | EC50
89 | CCc1nc(SCC(=O)Nc2ccccc2OC)c2c(C)c(C)sc2n1 | 6.58 µM
90 | O=C(N/N=C/c1c[nH]c2ccccc12)c1cc(-c2ccc(-c3ccccc3)cc2)n[nH]1 | 2.89 µM
91 | CCn1c(O)c(/C=N/N=C/c2ccccc2)c2ccc(C3=NNC(=O)CC3)cc21 | 4.3 µM
92 | Cc1ccc(O)c(/C=N/NC(=O)Cc2ccc(Cl)cc2)c1 | 2.78 µM
93 | O=C(O)CSCC(=O)N(Cc1ccccc1)c1nc(-c2ccccc2)c(-c2ccccc2)s1 | 1.58 µM
94 | Cc1cc(C)c2ccc(N)nc2c1O | 3.33 µM
95 | c1ccc2c(c1)nc(Nc1ccc(N3CCCCC3)cc1)c1nncn12 | 6.03 µM
96 | Cc1ccc(C)c(S(=O)(=O)N2CCN(Cc3ccc(O)c4ncccc34)CC2)c1 | 2.8 µM
97 | COc1ccc(Sc2ccc(NC(=O)c3ccccc3Cl)cc2C#N)cc1 | 2.51 µM
98 | O=C1c2ccccc2C(=O)c2[nH]c(=O)[nH]c21 | 9.21 µM
99 | Nc1c(S(=O)(=O)c2ccccc2)c2nc3ccccc3nc2n1/N=C/c1cccc(O)c1 | 5.22 µM
100 | Cc1cccc(C)c1NC(=O)CN(C)CC(=O)Nc1sc2c(c1C(N)=O)CCC2 | > 15 µM (inactive)
101 | C=CCn1c(COc2ccccc2)nnc1SC(C)C(=O)N/N=C/c1cc(Cl)ccc1O (stereo unspecified) | 1.7 µM
102 | Oc1ccc(COCc2ccccc2)c2cccnc12 | 1.85 µM
103 | N#CCSc1nc2ccc(N3CCOCC3)cc2c(=O)n1CCc1ccccc1 | 3.71 µM
104 | Oc1[nH]c2ccc(Br)cc2c1N=NC(=S)N1CCOCC1 | 0.108 µM
105 | Cc1ccc(C)c(C(=O)COC(=O)c2cc(Cl)nc3ccccc23)c1 | 10.9 µM
106 | Cc1ccc2nc(N3C(=O)C(O)=C(C(=O)c4cc5ccccc5o4)C3c3cccs3)sc2c1 (stereo unspecified) | 1.22 µM
